Reference: US8835466B2, “Synthesis and uses of pyroglutamic acid derivatives” (Prodimed, S.A., priority 2006, dated 2014)

Tested on: Ehrlich tumour cells (murine mammary adenocarcinoma)
Assay: Effect of isomers and BLAS on in vivo tumour growth, Ehrlich tumours (Example 9)
Design: species or system Balb/c mice
Conditions: for Tumour surface, overall values (Mean) / Tumour surface, overall values (Median) / Tumour volume, overall values (Mean) / Tumour volume, overall values (Median): 260 ng/mouse i.p. days 6, 7 and 14
Description: This assay was made in order to compare the effect of each stereoisomer on in vivo tumour growth in mice with the effect of the mixture of all of them challenged with Ehlrich tumours. The same products, equipment, reagents, doses, vehicle and route of administration as in example 8 were used.
Mice were inoculated with Ehrlich tumour cells. It was described as a murine mammary adenocarcinoma. Ehrlich tumour is a murine mammary carcinoma originally raised in an outbred mouse, and therefore it belongs to the so-called non-specific tumours (Subiza J L, Viñuela J E, Rodriguez R, Gil J, Figueredo M A, de la Concha. E G. Development of splenic natural suppressor (NS) cells in Ehrlich tumor bearing mice. Int J Cancer, 44:307 315; 1989). It may grow across histocompatibility barriers and therefore is not mouse strain specific (Carry P J, Prescott D M, Ogilvie G K. Resistance to Ehrlich ascites tumor in a strain of dystrophic mice. Cancer Res., 39:2139-2140; 1979).
Ehrlich cells were maintained in vitro by serial passages every 3-4 days. Cultures were performed with RPMI medium medium (RPMI, 10% foetal calf serum, 2 mM L-glutamine, non essential aminoacids, 1 mM sodium pyruvate, 20 mM HEPES, 80 μg/mL gentamycin; all of them were purchased from Sigma, St. Louis, Mo., USA) by seeding 5×10^6 cells onto 75 cm^2 culture flasks. Tumour cells collected from 48 hour cultures were used as source of cells for the studies described below.
Tumours were established by subcutaneous inoculation in the right hind flank. Mice (Balb/c) were inoculated with 0.2 mL containing 2×10^5 viable Ehrlich cells. The day of subcutaneous inoculation will be considered Day 0 of the test.
Mice were observed daily and the tumour size recorded twice a week. This was carried out by measuring two perpendicular diameters (L/W) with a calliper. These measures were used to obtain both tumour surface and volume: Tumour surface=L×W(mm^2) Tumour volume=L×W^2×½(mm^3)
Results were expressed as single values and/or as the mean±SD or median from each experimental group.
A case-control study was performed with treated and control mice in order to determine whether differences between BLAS or each diferent stereoisomer and administration of placebo were present. […] The U-test of Mann Withney was chosen for being one of the better known non-parametrical tests, anyway, results for this test are equivalent both to those of Wilcoxon's sum of ranges and Kruskal-Wallis two-groups test.

[1] = day 13 after tumour inoculation
[2] = day 16 after tumour inoculation
[3] = day 20 after tumour inoculation
[4] = day 23 after tumour inoculation
[5] = day 29 after tumour inoculation
[6] = day 31 after tumour inoculation
[7] = day 35 after tumour inoculation
[8] = day 38 after tumour inoculation

Br.N[C@@]1(C[n+]2ccccc2)C[C@H](C(=O)O)NC1=O.[Br-] (single isomer, unassigned; isomer 2) [isomer 2, 3R,5R-1-(3-Amino-5-carboxy-2-oxopyrrolidin-3-ylmethyl)pyridinium bromide hidrobromide]
Inhibition of the in vivo growth of Ehrlich tumour cells, in words (260 ng i.p. days 6, 7 and 14): inhibit the in vivo growth | Tumour surface, overall values (Mean) (day 0 after tumour inoculation): 0 mm^2 | Tumour surface, overall values (Median) (day 0 after tumour inoculation): 0 mm^2 | Tumour volume, overall values (Mean) (day 0 after tumour inoculation): 0 mm^3 | Tumour volume, overall values (Median) (day 0 after tumour inoculation): 0 mm^3 | Tumour surface, overall values (Mean) (day 8 after tumour inoculation): 6.69 mm^2 | Tumour surface, overall values (Median) (day 8 after tumour inoculation): 4 mm^2 | Tumour volume, overall values (Mean) (day 8 after tumour inoculation): 10.97 mm^3 | Tumour volume, overall values (Median) (day 8 after tumour inoculation): 4 mm^3 | Tumour surface, overall values (Mean) [1]: 14.81 mm^2 | Tumour surface, overall values (Median) [1]: 16 mm^2 | Tumour volume, overall values (Mean) [1]: 32.16 mm^3 | Tumour volume, overall values (Median) [1]: 32 mm^3 | Tumour surface, overall values (Mean) [2]: 20.37 mm^2 | Tumour surface, overall values (Median) [2]: 20 mm^2 | Tumour volume, overall values (Mean) [2]: 51.87 mm^3 | Tumour volume, overall values (Median) [2]: 40 mm^3 | Tumour surface, overall values (Mean) [3]: 28.37 mm^2 | Tumour surface, overall values (Median) [3]: 27.5 mm^2 | Tumour volume, overall values (Mean) [3]: 81.81 mm^3 | Tumour volume, overall values (Median) [3]: 68.75 mm^3 | Tumour surface, overall values (Mean) [4]: 35.75 mm^2 | Tumour surface, overall values (Median) [4]: 33 mm^2 | Tumour volume, overall values (Mean) [4]: 113.75 mm^3 | Tumour volume, overall values (Median) [4]: 91.5 mm^3 | Tumour surface, overall values (Mean) [5]: 46.12 mm^2 | Tumour volume, overall values (Mean) [5]: 167 mm^3 | Tumour surface, overall values (Mean) [6]: 50.06 mm^2 | Tumour surface, overall values (Median) [6]: 45 mm^2 | Tumour volume, overall values (Mean) [6]: 191.91 mm^3 | Tumour volume, overall values (Median) [6]: 135 mm^3 | Tumour surface, overall values (Mean) [7]: 60.25 mm^2 | Tumour surface, overall values (Median) [7]: 51 mm^2 | Tumour volume, overall values (Mean) [7]: 258.06 mm^3 | Tumour volume, overall values (Median) [7]: 153 mm^3 | Tumour surface, overall values (Mean) [8]: 75.37 mm^2 | Tumour surface, overall values (Median) [8]: 71 mm^2 | Tumour volume, overall values (Mean) [8]: 372.5 mm^3 | Tumour volume, overall values (Median) [8]: 266.5 mm^3 | Differences in Ehrlich tumour growth rate vs. placebo, statistical significance p (Mann-Whitney U test) (either in surface or volume, all days scored after the day 13th): < 0.05
